Assay results reported in ChEMBL document CHEMBL1141922, “Benzimidazoles as non-peptide luteinizing hormone-releasing hormone (LHRH) antagonists. Part 3: Discovery of 1-(1H-benzimidazol-5-yl)-3-tert-butylurea derivatives” (Bioorg Med Chem Lett, 2005).
Values belong to the compound of their own block, whether it stands above or below them.

How the values were obtained:
[1] = biological target: T1, Gonadotropin-releasing hormone receptor (Homo sapiens, UniProt P30968); test: Inhibitory concentration against human leutinizing releasing hormone receptor
T1 sequence (P30968 whole entry): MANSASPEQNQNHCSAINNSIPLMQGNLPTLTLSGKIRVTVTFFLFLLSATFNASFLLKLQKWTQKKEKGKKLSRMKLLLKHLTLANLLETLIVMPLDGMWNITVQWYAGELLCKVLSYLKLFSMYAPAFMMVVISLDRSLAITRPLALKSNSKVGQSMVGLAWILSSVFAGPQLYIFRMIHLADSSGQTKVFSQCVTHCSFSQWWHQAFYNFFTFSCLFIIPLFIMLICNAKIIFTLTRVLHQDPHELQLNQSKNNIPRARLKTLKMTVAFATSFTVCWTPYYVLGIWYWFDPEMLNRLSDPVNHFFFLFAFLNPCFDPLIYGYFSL

[2] = biological target: T2, Gonadotropin-releasing hormone receptor (Rattus norvegicus, UniProt P30969); test: Inhibitory concentration against rat leutinizing releasing hormone receptor
T2 sequence (P30969 whole entry): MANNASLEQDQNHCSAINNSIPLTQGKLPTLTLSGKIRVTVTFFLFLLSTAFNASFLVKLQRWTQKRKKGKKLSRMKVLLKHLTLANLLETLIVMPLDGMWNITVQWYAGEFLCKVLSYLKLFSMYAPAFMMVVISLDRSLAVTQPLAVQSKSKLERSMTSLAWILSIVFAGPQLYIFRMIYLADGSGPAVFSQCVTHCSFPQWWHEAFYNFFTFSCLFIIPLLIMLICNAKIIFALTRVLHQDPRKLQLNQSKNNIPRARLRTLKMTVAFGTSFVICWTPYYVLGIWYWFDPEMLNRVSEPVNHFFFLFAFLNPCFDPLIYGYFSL

Structure (SMILES): CCCn1c(SCc2cc([N+](=O)[O-])ccc2OC)nc2cc(NC(=O)NC(C)(C)C)cc(C(=O)NC(C)(C)C)c21
IC50 [1]: 410 nM
IC50 [2]: 490 nM

Structure (SMILES): COc1ccc(C#N)cc1CSc1nc2cc(NC(=O)C3CC3)ccc2n1C(C)C
IC50 [1]: 570 nM
IC50 [2]: > 10000 nM

Structure (SMILES): CCCn1c(SCc2cc([N+](=O)[O-])ccc2OC)nc2cc(NC(=O)NC(C)(C)C)cc(C(=O)NCCc3cccnc3)c21
IC50 [1]: 160 nM
IC50 [2]: 110 nM

Structure (SMILES): CC(C)n1c(SCc2ccccc2Cl)nc2cc(NC(=O)C3CC3)ccc21
IC50 [1]: 6300 nM
IC50 [2]: > 10000 nM

Structure (SMILES): CCCCCn1c(SCc2cc([N+](=O)[O-])ccc2OC)nc2cc(NC(=O)NC(C)(C)C)ccc21
IC50 [1]: 210 nM
IC50 [2]: 880 nM

Structure (SMILES): COc1ccccc1CSc1nc2cc(NC(=O)C3CC3)ccc2n1C(C)C
IC50 [1]: 2100 nM
IC50 [2]: > 10000 nM

Structure (SMILES): CCCn1c(SCc2cc([N+](=O)[O-])ccc2OC)nc2cc(NC(=O)NC(C)(C)C)cc(C(=O)N(C)C)c21
IC50 [1]: 270 nM
IC50 [2]: 200 nM

Structure (SMILES): Cc1cccc(CSc2nc3cc(NC(=O)C4CC4)ccc3n2C(C)C)c1
IC50 [1]: 6500 nM
IC50 [2]: > 10000 nM

Structure (SMILES): COc1ccc([N+](=O)[O-])cc1CSc1nc2cc(NC(=O)NC3CC3)ccc2n1C(C)C
IC50 [1]: 1900 nM
IC50 [2]: 1600 nM

Structure (SMILES): CCCn1c(SCc2cc([N+](=O)[O-])ccc2OC)nc2cc(NC(=O)NC(C)(C)C)cc(C(=O)N3CCCC3)c21
IC50 [1]: 610 nM
IC50 [2]: 140 nM

Structure (SMILES): COc1ccc([N+](=O)[O-])cc1CSc1nc2cc(NC(=O)NC(C)C)ccc2n1C(C)C
IC50 [1]: 600 nM
IC50 [2]: 280 nM

Structure (SMILES): COc1ccc([N+](=O)[O-])cc1CSc1nc2cc(NC(=O)OC(C)(C)C)ccc2n1C(C)C
IC50 [1]: 880 nM
IC50 [2]: 710 nM

Structure (SMILES): COc1ccc([N+](=O)[O-])cc1CSc1nc2cc(NC(=O)C(C)C)ccc2n1C(C)C
IC50 [1]: 250 nM
IC50 [2]: 1500 nM

Structure (SMILES): COc1ccc([N+](=O)[O-])cc1CSc1nc2cc(NC(=O)NC(C)(C)C)ccc2n1CCc1ccccc1
IC50 [1]: 360 nM
IC50 [2]: 300 nM

Structure (SMILES): COc1ccc([N+](=O)[O-])cc1CSc1nc2cc(NC(=O)C(C)(C)C)ccc2n1C(C)C
IC50 [1]: 180 nM
IC50 [2]: > 10000 nM

Structure (SMILES): Cc1ccccc1CSc1nc2cc(NC(=O)C3CC3)ccc2n1C(C)C
IC50 [1]: 3200 nM
IC50 [2]: > 10000 nM

Structure (SMILES): COc1ccc([N+](=O)[O-])cc1CSc1nc2cc(NC(=O)NC(C)(C)C)ccc2n1-c1ccccc1
IC50 [1]: 350 nM
IC50 [2]: > 2600 nM

Structure (SMILES): CCCn1c(SCc2cc([N+](=O)[O-])ccc2OC)nc2cc(NC(=O)NC(C)(C)C)cc(C(=O)NCCN)c21
IC50 [1]: 210 nM
IC50 [2]: 55 nM

Structure (SMILES): CCCn1c(SCc2cc([N+](=O)[O-])ccc2OC)nc2cc(NC(=O)NC(C)(C)C)cc(C(=O)NCCCN(C)Cc3ccccc3)c21
IC50 [1]: 190 nM
IC50 [2]: 21 nM

Structure (SMILES): COc1ccc([N+](=O)[O-])cc1CSc1nc2cc(NC(=O)C3CC3)ccc2n1C(C)C
IC50 [1]: 280 nM
IC50 [2]: > 8200 nM

Structure (SMILES): CCCn1c(SCc2cc([N+](=O)[O-])ccc2OC)nc2cc(NC(=O)NC(C)(C)C)cc(C(=O)NCCc3ccncc3)c21
IC50 [1]: 130 nM
IC50 [2]: 45 nM

Structure (SMILES): COc1ccc([N+](=O)[O-])cc1CSc1nc2cc(NC(=O)C3CCC3)ccc2n1C(C)C
IC50 [1]: 1500 nM
IC50 [2]: 630 nM

Structure (SMILES): COc1ccc(C(C)=O)cc1CSc1nc2cc(NC(=O)C3CC3)ccc2n1C(C)C
IC50 [1]: 260 nM
IC50 [2]: > 10000 nM

Structure (SMILES): COc1ccc([N+](=O)[O-])cc1CSc1nc2cc(NC(=O)CC(C)(C)C)ccc2n1C(C)C
IC50 [1]: 180 nM
IC50 [2]: 110 nM

Structure (SMILES): CCCn1c(SCc2cc([N+](=O)[O-])ccc2OC)nc2cc(NC(=O)NC(C)(C)C)cc(C(=O)NCCCN(C)C)c21
IC50 [1]: 170 nM
IC50 [2]: 19 nM

Structure (SMILES): COC(=O)c1ccc(OC)c(CSc2nc3cc(NC(=O)C4CC4)ccc3n2C(C)C)c1
IC50 [1]: 980 nM
IC50 [2]: > 10000 nM

Structure (SMILES): COc1ccc(Cl)cc1CSc1nc2cc(NC(=O)C3CC3)ccc2n1C(C)C
IC50 [1]: 160 nM
IC50 [2]: > 10000 nM

Structure (SMILES): CNC(=O)Nc1ccc2c(c1)nc(SCc1cc([N+](=O)[O-])ccc1OC)n2C(C)C
IC50 [1]: 3300 nM
IC50 [2]: > 10000 nM

Compounds with a lower IC50 [1], results first:

IC50 [1]: 47 nM
IC50 [2]: 240 nM
Structure (SMILES): COc1ccc([N+](=O)[O-])cc1CSc1nc2cc(NC(=O)NC(C)(C)C)ccc2n1Cc1ccncc1

IC50 [1]: 31 nM
IC50 [2]: 51 nM
Structure (SMILES): CCCn1c(SCc2cc([N+](=O)[O-])ccc2OC)nc2cc(NC(=O)NC(C)(C)C)cc(C(=O)NCc3ccccn3)c21

IC50 [1]: 79 nM
IC50 [2]: 860 nM
Structure (SMILES): COc1ccc([N+](=O)[O-])cc1CSc1nc2cc(NC(=O)NC(C)(C)C)ccc2n1C1CC1

IC50 [1]: 28 nM
IC50 [2]: 160 nM
Structure (SMILES): COc1ccc([N+](=O)[O-])cc1CSc1nc2cc(NC(=O)NC(C)(C)C)ccc2n1Cc1ccccc1

IC50 [1]: 18 nM
IC50 [2]: 120 nM
Structure (SMILES): CCCn1c(SCc2cc([N+](=O)[O-])ccc2OC)nc2cc(NC(=O)NC(C)(C)C)ccc21

IC50 [1]: 42 nM
IC50 [2]: 170 nM
Structure (SMILES): CCn1c(SCc2cc([N+](=O)[O-])ccc2OC)nc2cc(NC(=O)NC(C)(C)C)ccc21

IC50 [1]: 41 nM
IC50 [2]: 23 nM
Structure (SMILES): CCCn1c(SCc2cc([N+](=O)[O-])ccc2OC)nc2cc(NC(=O)NC(C)(C)C)cc(C(=O)NC)c21

IC50 [1]: 69 nM
IC50 [2]: 54 nM
Structure (SMILES): CCCn1c(SCc2cc([N+](=O)[O-])ccc2OC)nc2cc(NC(=O)NC(C)(C)C)cc(C(=O)NCc3cccnc3)c21

IC50 [1]: 62 nM
IC50 [2]: 62 nM
Structure (SMILES): COc1ccc([N+](=O)[O-])cc1CSc1nc2cc(NC(=O)NC(C)(C)C)ccc2n1C(C)C

IC50 [1]: 23 nM
IC50 [2]: 330 nM
Structure (SMILES): CCCCn1c(SCc2cc([N+](=O)[O-])ccc2OC)nc2cc(NC(=O)NC(C)(C)C)ccc21

IC50 [1]: 43 nM
IC50 [2]: 670 nM
Structure (SMILES): COc1ccc([N+](=O)[O-])cc1CSc1nc2cc(NC(=O)NC(C)(C)C)ccc2n1Cc1ccccn1

IC50 [1]: 57 nM
IC50 [2]: 280 nM
Structure (SMILES): COCCn1c(SCc2cc([N+](=O)[O-])ccc2OC)nc2cc(NC(=O)NC(C)(C)C)ccc21

IC50 [1]: 21 nM
IC50 [2]: 510 nM
Structure (SMILES): CCCn1c(SCc2cc([N+](=O)[O-])ccc2OC)nc2cc(NC(=O)NC(C)(C)C)cc(C(=O)O)c21

IC50 [1]: 27 nM
IC50 [2]: 56 nM
Structure (SMILES): CCCn1c(SCc2cc([N+](=O)[O-])ccc2OC)nc2cc(NC(=O)NC(C)(C)C)cc(C(=O)NCCc3ccccn3)c21

IC50 [1]: 120 nM
IC50 [2]: 130 nM
Structure (SMILES): CCCn1c(SCc2cc([N+](=O)[O-])ccc2OC)nc2cc(NC(=O)NC(C)(C)C)cc(C(=O)NCc3ccccc3)c21

IC50 [1]: 61 nM
IC50 [2]: 35 nM
Structure (SMILES): CCCn1c(SCc2cc([N+](=O)[O-])ccc2OC)nc2cc(NC(=O)NC(C)(C)C)cc(C(=O)NCc3ccncc3)c21

IC50 [1]: 33 nM
IC50 [2]: 150 nM
Structure (SMILES): COc1ccc([N+](=O)[O-])cc1CSc1nc2cc(NC(=O)NC(C)(C)C)ccc2n1Cc1cccnc1

IC50 [1]: 37 nM
IC50 [2]: 280 nM
Structure (SMILES): CCCn1c(SCc2cc([N+](=O)[O-])ccc2OC)nc2cc(NC(=O)NC(C)(C)C)cc(C(=O)OC)c21
